Activity calls are given as the source filed them.
Assays:
HEK293 [1] = test: cells; assay type: functional, cell-based; conditions: Homo sapiens
[2] = biological target: T1, Nuclear receptor subfamily 0 group B member 1 (Homo sapiens, UniProt P51843); test: Luminescence-based cell-based high throughput dose response assay for inhibitors of the orphan nuclear receptor subfamily 0, group B, member 1 (DAX1; NR0B1). [Related pubchem assays (depositor defined):AID504766, AID504790]; assay type: functional
T1 sequence (P51843 whole entry): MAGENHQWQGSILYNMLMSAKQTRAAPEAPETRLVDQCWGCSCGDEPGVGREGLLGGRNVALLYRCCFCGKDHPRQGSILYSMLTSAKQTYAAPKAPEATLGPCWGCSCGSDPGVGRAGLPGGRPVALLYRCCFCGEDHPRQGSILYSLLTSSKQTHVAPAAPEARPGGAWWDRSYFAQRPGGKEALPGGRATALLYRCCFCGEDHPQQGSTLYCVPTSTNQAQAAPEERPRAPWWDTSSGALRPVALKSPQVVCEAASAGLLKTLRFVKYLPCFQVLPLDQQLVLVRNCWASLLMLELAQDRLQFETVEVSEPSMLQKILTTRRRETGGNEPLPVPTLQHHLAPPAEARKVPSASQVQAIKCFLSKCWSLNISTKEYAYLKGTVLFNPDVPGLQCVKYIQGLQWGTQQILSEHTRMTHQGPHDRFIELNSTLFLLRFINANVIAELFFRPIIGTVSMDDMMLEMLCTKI

Candida albicans = test: fluconazole-resistant Candida strain growth inhibitors – CaCi-8 strain, dry powder, set 4, dose response (AID 488950); assay type: functional, organism-based
Jurkat = test: SAR Analysis of small molecule inhibitors of […] specific antigen receptor-induced NF-kB activation in a Jurkat cell line using a luminescence assay - Set 3. [Related pubchem assays (depositor defined):AID435022, AID435025, AID465]; assay type: functional, cell-based; conditions: Homo sapiens
HEK293 [3] = test: SAR Analysis of small molecule inhibitors of B-cell specific antigen receptor-induced NF-kB activation in a HEK-293T cell line using a luminescence assay - Set 2. [Related pubchem assays (depositor defined):AID435022, AID435025, AID489021]; assay type: functional, cell-based; conditions: Homo sapiens
HEK293 [4] = test: HEK293T cell viability loss, resazurin readout – resazurin fluorescence, cytotoxicity control for NF-kB activator project, SAR follow-up (AID 493251); assay type: functional, cell-based; conditions: Homo sapiens
Vero = test: viability of Vero cells under compound – cytotoxicity control for flavivirus capping enzyme inhibitors (AID 588742); assay type: functional; conditions: Chlorocebus sabaeus
Genome polyprotein = Genome polyprotein (dengue virus type 2, UniProt P29990); test: flavivirus cap methylation enzyme inhibition – biochemical, confirmation dose response, primary screen (AID 588689); assay type: functional
Chain of Genome polyprotein (P29990 2492-3391 limits assumed): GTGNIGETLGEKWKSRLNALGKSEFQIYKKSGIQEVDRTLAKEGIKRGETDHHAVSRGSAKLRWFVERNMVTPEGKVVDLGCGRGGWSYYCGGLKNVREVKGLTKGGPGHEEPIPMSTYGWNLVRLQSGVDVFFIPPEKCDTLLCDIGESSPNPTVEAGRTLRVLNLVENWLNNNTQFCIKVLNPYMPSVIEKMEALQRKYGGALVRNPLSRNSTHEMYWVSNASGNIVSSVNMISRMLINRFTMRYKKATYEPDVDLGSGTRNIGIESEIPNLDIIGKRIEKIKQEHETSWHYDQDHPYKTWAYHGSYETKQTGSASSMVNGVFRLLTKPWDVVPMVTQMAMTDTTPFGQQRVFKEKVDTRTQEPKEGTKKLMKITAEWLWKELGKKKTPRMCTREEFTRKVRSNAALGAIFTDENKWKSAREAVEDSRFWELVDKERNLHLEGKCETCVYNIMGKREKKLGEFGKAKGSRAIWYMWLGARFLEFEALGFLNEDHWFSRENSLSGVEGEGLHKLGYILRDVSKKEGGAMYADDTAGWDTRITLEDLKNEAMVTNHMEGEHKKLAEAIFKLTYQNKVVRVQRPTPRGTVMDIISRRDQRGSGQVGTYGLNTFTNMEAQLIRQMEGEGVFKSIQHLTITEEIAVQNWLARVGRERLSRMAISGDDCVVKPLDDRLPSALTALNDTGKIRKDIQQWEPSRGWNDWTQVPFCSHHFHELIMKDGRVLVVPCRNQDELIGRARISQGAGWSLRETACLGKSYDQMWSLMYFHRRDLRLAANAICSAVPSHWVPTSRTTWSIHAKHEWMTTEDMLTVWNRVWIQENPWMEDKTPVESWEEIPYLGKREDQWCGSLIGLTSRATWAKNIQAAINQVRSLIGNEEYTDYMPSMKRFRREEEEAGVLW

Q: `CC(C=NNc1ccc([N+](=O)[O-])cn1)=Cc1ccccc1` was tested. Which IC50 (HEK293 [1]) did it give?
A: Its IC50 is > 67.5 µM (inactive).

Q: What about the IC50 [2] of the same molecule?
A: The IC50 was > 67.5 µM (inactive).

Q: For `O=C(c1ccc(Cl)cc1)N1CCN(c2cccc(C(F)(F)F)n2)CC1`, which AC50 (Candida albicans) is on record?
A: Its AC50 is 172 µM (active).

Q: With `CCOc1ccc(-c2nc(CSCC(=O)NC(C)C)c(C)o2)cc1` as the molecule, how does the IC50 (Jurkat) read?
A: The IC50 was > 80 µM (inactive).

Q: And the IC50 (HEK293 [3])?
A: Its IC50 is 61.7 µM (inactive).

Q: And the IC50 (HEK293 [4])?
A: Its IC50 is > 80 µM (inactive).

Q: How did the CC50 (Vero) turn out when `O=S(=O)(N=C1C=CC(=NS(=O)(=O)c2ccccc2)c2ccccc21)c1ccccc1` was run?
A: Its CC50 is 34.1 µM (active).

Q: What about the IC50 (Genome polyprotein) of the same molecule?
A: Its IC50 is 19.1 µM (active).
